Source: patent US6610677B2, “Pyrazole compounds useful as protein kinase inhibitors” (Vertex Pharmaceuticals Incorporated, priority 2000, dated 2003)

Key:
GSK-3β (AA 1-420) = target: T1, GSK-3β (AA 1-420) (Homo sapiens, UniProt P49841); assay: Ki determination for the inhibition of GSK-3 (coupled enzyme system); format: biochemical; settings: 20 μM ATP, 300 μM peptide, 20 nM GSK-3β, 30° C
T1 construct: GSK-3β (AA 1-420)
Summary of the method: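 Pyruvate kinase/lactate dehydrogenase-coupled NADH assay with 20 nM GSK-3β (AA 1-420), 20 μM ATP, 300 μM phosphopeptide HSSPHQS(PO3H2)EDEEE in HEPES pH 7.5, 1.5% DMSO, 30 °C. Compound (12 points, 0.002–30 μM) preincubated 10 min before ATP start; Ki derived from 10-min rates versus inhibitor concentration.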

Aurora-2 = target: T2, Aurora-2 (Homo sapiens, UniProt O14965); assay: Ki determination for the inhibition of Aurora-2 (coupled enzyme assay); format: biochemical; settings: 70 nM Aurora-2, peptide LRRASLG, 30° C
T2 sequence (O14965 1-403): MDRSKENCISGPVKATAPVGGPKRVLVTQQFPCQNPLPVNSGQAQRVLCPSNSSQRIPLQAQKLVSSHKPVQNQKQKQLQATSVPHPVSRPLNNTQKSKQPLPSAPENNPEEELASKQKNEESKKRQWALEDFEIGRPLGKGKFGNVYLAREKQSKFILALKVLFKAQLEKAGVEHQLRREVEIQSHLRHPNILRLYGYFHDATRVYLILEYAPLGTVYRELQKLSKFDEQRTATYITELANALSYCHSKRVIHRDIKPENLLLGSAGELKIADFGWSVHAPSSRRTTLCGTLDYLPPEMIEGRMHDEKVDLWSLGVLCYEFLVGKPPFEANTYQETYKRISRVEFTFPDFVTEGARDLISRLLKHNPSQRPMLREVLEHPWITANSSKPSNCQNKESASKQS
Description: Compounds were screened in the following manner for their ability to inhibit Aurora-2 using a standard coupled enzyme assay (Fox et al (1998) Protein Sci 7, 2249).
To an assay stock buffer solution containing 0.1M HEPES 7.5, 10 mM MgCl2, 1 mM DTT, 25 mM NaCl, 2.5 mM phosphoenolpyruvate, […], 30 mg/ml pyruvate kinase, 10 mg/ml lactate dehydrogenase, […], and 800 μM peptide (LRRASLG, American Peptide, Sunnyvale, Calif.) was added a DMSO solution of a compound of the present invention to a final concentration of 30 μM. The resulting mixture was incubated at 30° C. for 10 min. The reaction was initiated by the addition of 10 μL of Aurora-2 stock solution to give a final concentration of 70 nM in the assay. The rates of reaction were obtained by monitoring absorbance at 340 nm over a 5 minute read time at 30° C. using a BioRad Ultramark plate reader (Hercules, Calif.). The Ki values were determined from the rate data as a function of inhibitor concentration.

T1 sequence (P49841 whole entry, the tested form may be a part): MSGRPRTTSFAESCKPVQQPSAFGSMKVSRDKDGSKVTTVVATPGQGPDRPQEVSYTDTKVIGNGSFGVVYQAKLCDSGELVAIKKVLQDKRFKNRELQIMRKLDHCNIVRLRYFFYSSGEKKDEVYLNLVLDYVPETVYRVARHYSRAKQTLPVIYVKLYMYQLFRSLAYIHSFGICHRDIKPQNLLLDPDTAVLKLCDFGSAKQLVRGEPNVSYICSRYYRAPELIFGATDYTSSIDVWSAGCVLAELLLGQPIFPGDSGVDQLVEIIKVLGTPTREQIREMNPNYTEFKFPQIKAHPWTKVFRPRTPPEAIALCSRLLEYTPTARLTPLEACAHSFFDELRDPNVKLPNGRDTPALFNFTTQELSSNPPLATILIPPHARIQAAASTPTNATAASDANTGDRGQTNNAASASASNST

Compound | Ki (GSK-3β (AA 1-420)) [nM] | Ki (Aurora-2) [nM]
OCc1cc(Nc2nc(N3CCCCC3)nc3ccccc23)[nH]n1 [III-124, (5-Hydroxymethyl-2H-pyrazol-3-yl)-[2-(piperidin-1-yl)-quinazolin-4-yl]-amine] | 100 to 1000 | 100 to 1000
c1ccc(-c2nc(Nc3n[nH]c4ccccc34)c3ccccc3n2)cc1 [III-1, (1H-Indazol-3-yl)-(2-phenyl-quinazolin-4-yl)-amine] | 100 to 1000 | 100 to 1000
Fc1cccc2c(Nc3nc(-c4ccccc4)nc4ccccc34)[nH]nc12 [III-129, (7-Fluoro-1H-indazol-3-yl)-(2-phenyl-quinazolin-4-yl)-amine] | 100 to 1000 | 1000 to 20000
COc1ccccc1-c1nc(Nc2cc(C)[nH]n2)c2ccccc2n1 [II-37, [2-(2-Methoxyphenyl)-quinazolin-4-yl]-(5-methyl-2H-pyrazol-3-yl)-amine] | – | < 100
N#Cc1ccccc1-c1nc(Nc2n[nH]c3ccccc23)c2ccccc2n1 [II-78, [2-(2-cyano-phenyl)-quinazolin-4-yl]-(1H-indazol-3-yl)-amine] | < 100 | 1000 to 20000
FC(F)(F)c1ccccc1-c1nc(Nc2cc(C3CC3)[nH]n2)c2ccccc2n1 [II-55, (5-Cyclopropyl-2H-pyrazol-3-yl)-[2-(2-trifluoromethyl-phenyl)-quinazolin-4-yl]-amine] | – | < 100
COc1cccc2c(Nc3n[nH]c4c(F)cccc34)nc(-c3ccccc3C(F)(F)F)nc12 [II-92, (7-Fluoro-1H-indazol-3-yl)-[8-methoxy-2-(2-trifluoromethyl-phenyl)-quinazolin-4-yl]-amine] | < 100 | –
CNC(=O)c1cc(Nc2nc(-c3ccccc3)nc3ccccc23)[nH]n1 [III-96, (5-Methylcarbamoyl-2H-pyrazol-3-yl)-(2-phenyl-quinazolin-4-yl)-amine] | 1000 to 20000 | –
Fc1cccc2c(Nc3nc(-c4ccccc4Cl)nc4ccccc34)n[nH]c12 [II-74, [2-(2-Chloro-phenyl)-quinazolin-4-yl]-(7-fluoro-1H-indazol-3-yl)-amine] | < 100 | –
Cc1nc(Nc2nc(-c3ccccc3C(F)(F)F)nc3ccccc23)n[nH]1 [IX-38, (5-Methyl-2H-[1,2,4]triazol-3-yl)-[2-(2-trifluoromethylphenyl)-quinazolin-4-yl]-amine] | 100 to 1000 | –
Cc1nc(-c2ccccc2Cl)nc(Nc2n[nH]c3ccccc23)c1C [II-26, [2-(2-Chlorophenyl)-5,6-dimethyl-pyrimidin-4-yl]-(1H-indazol-3-yl)-amine] | < 100 | –
Fc1cccc2c(Nc3nc(-c4ccccc4C(F)(F)F)nc4c3CCCCCC4)n[nH]c12 [II-120, (7-Fluoro-1H-indazol-3-yl)-[2-(2-trifluoromethyl-phenyl)-5,6,7,8,9,10-hexahydro-cyclooctapyrimidin-4-yl]-amine] | < 100 | –
Cc1cc(Nc2nc(-c3ccccc3O)nc3ccccc23)n[nH]1 [II-44, [2-(2-Hydroxyphenyl)-quinazolin-4-yl]-(5-Methyl-2H-pyrazol-3-yl)-amine] | 100 to 1000 | –

Now from value to compound:

Ki (GSK-3β (AA 1-420)) [nM] | Ki (Aurora-2) [nM] | Compound
< 100 | 1000 to 20000 | COc1cccc2c(Nc3n[nH]c4ccccc34)nc(-c3ccccc3C(F)(F)F)nc12 [II-90, (1H-Indazol-3-yl)-[8-methoxy-2-(2-trifluoromethyl-phenyl)-quinazolin-4-yl]-amine]
< 100 | 1000 to 20000 | Fc1ccc2[nH]nc(Nc3nc(-c4ccccc4C(F)(F)F)nc4ccccc34)c2c1 [II-59, (5-Fluoro-1H-indazol-3-yl)-[2-(2-trifluoromethyl-phenyl)-quinazolin-4-yl]-amine]
< 100 | 100 to 1000 | O=[N+]([O-])c1ccc2[nH]nc(Nc3nc(-c4ccccc4C(F)(F)F)nc4ccccc34)c2c1 [II-70, (5-Nitro-1H-indazol-3-yl)-[2-(2-trifluoromethyl-phenyl)-quinazolin-4-yl]-amine]
< 100 | 1000 to 20000 | FC(F)(F)c1ccc2c(Nc3nc(-c4ccccc4C(F)(F)F)nc4ccccc34)n[nH]c2c1 [II-69, (6-Trifluoromethyl-1H-indazol-3-yl)-[2-(2-trifluoromethyl-phenyl)-quinazolin-4-yl]-amine]
< 100 | < 100 | Cc1cc(Nc2nc(-c3cc(F)cc(F)c3)nc3ccccc23)[nH]n1 [III-51, [2-(3,5-Difluorophenyl)-quinazolin-4-yl]-(5-methyl-2H-pyrazol-3-yl)-amine]
< 100 | 100 to 1000 | FC(F)(F)c1ccccc1-c1nc(Nc2n[nH]c3ccc(Br)cc23)c2ccccc2n1 [II-79, (5-Bromo-1H-indazol-3-yl)-[2-(2-trifluoromethyl-phenyl)-quinazolin-4-yl]-amine]
< 100 | < 100 | Cc1cc(Nc2nc(-c3cccc(C(C)C)c3)nc3ccccc23)[nH]n1 [III-55, [2-(3-Isopropylphenyl)-quinazolin-4-yl]-(5-methyl-2H-pyrazol-3-yl)-amine]
< 100 | 100 to 1000 | CCc1cc(Nc2cc(C)n[nH]2)nc(-c2ccccc2OC(F)(F)F)n1 [II-105, [6-Ethyl-2-(2-trifluoromethoxy-phenyl)-pyrimidin-4-yl]-(5-methyl-2H-pyrazol-3-yl)-amine]
< 100 | 100 to 1000 | Fc1ccc2n[nH]c(Nc3nc(-c4ccccc4)nc4ccccc34)c2c1 [III-130, (5-Fluoro-1H-indazol-3-yl)-(2-phenyl-quinazolin-4-yl)-amine]
< 100 | 1000 to 20000 | FC(F)(F)c1ccc2[nH]nc(Nc3nc(-c4ccccc4C(F)(F)F)nc4c3CCCC4)c2c1 [II-10, (5-Trifluoromethyl-1H-indazol-3-yl)-[2-(2-trifluoromethyl-phenyl)-5,6,7,8-tetrahydroquinazolin-4-yl]-amine]
< 100 | 1000 to 20000 | FC(F)(F)c1ccccc1-c1nc(Nc2n[nH]c3cc(Cl)ccc23)c2ccccc2n1 [II-80, (6-Chloro-1H-indazol-3-yl)-[2-(2-trifluoromethyl-phenyl)-quinazolin-4-yl]-amine]
< 100 | 1000 to 20000 | Cc1ccccc1-c1nc(Nc2n[nH]c3ccccc23)c2ccccc2n1 [II-67, (1H-indazol-3-yl)-[2-(2-methyl-phenyl)-quinazolin-4-yl]-amine]
< 100 | 1000 to 20000 | Oc1cc(Nc2nc(-c3ccccc3C(F)(F)F)nc3ccccc23)n[nH]1 [II-54, (5-Hydroxy-2H-pyrazol-3-yl)-[2-(2-trifluoromethylphenyl)-quinazolin-4-yl]-amine]
< 100 | 1000 to 20000 | Nc1ccc(-c2nc(Nc3n[nH]c4c(F)cc(F)cc34)c3ccccc3n2)c(Cl)c1 [II-96, [2-(4-Amino-2-chloro-phenyl)-quinazolin-4-yl]-(5,7-Difluoro-1H-indazol-3-yl)-amine]
< 100 | < 100 | Cc1cc(Nc2nc(-c3cccnc3)nc3ccccc23)[nH]n1 [III-56, (5-Methyl-2H-pyrazol-3-yl)-(2-pyridin-3-yl-quinazolin-4-yl)-amine]
< 100 | 1000 to 20000 | Fc1ccc2[nH]nc(Nc3nc(-c4ccccc4Cl)nc4ccccc34)c2c1 [II-75, [2-(2-Chloro-phenyl)-quinazolin-4-yl]-(5-fluoro-1H-indazol-3-yl)-amine]
< 100 | 100 to 1000 | CCc1ccccc1-c1nc(Nc2cc(C)[nH]n2)c2ccccc2n1 [II-42, [2-(2-Ethylphenyl)-quinazolin-4-yl]-(5-Methyl-2H-pyrazol-3-yl)-amine]
